Source: ChEMBL document CHEMBL1129066, “Novel terphenyls as selective cyclooxygenase-2 inhibitors and orally active anti-inflammatory agents” (J Med Chem, 1996)

Columns and labels:
[1] = target: Prostaglandin G/H synthase 1 (Homo sapiens, UniProt P23219)
Rattus norvegicus [2] = species: Rattus norvegicus; assay: animal or person; type: functional
Rattus norvegicus [3] = species: Rattus norvegicus; assay: animal or person; type: functional; remark: listed apart in the source
Rattus norvegicus [4] = species: Rattus norvegicus; assay: animal or person; type: functional; remark: listed apart in the source
Rattus norvegicus [5] = species: Rattus norvegicus; assay: animal or person; type: functional; remark: listed apart in the source

Sequence of Prostaglandin G/H synthase 1 (P23219 whole entry): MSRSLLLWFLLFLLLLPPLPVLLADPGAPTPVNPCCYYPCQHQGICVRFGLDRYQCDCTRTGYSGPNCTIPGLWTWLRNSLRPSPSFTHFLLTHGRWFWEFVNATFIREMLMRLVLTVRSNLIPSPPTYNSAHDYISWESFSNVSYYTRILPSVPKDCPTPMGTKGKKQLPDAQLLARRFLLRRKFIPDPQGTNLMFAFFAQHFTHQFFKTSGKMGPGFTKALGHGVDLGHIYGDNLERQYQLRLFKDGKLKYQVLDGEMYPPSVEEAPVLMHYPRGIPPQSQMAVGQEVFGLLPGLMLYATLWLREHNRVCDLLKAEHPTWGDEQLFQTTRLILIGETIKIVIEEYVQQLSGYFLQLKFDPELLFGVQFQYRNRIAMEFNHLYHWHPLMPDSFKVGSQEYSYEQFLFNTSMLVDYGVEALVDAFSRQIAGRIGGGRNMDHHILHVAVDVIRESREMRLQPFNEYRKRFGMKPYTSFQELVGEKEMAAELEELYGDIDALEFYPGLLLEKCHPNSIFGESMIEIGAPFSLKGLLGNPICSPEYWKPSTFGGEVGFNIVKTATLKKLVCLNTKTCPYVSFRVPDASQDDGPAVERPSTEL

Row | IC50 [1] | SMILES | other results
1 | > 100 µM | CS(=O)(=O)c1ccc(-c2cc3ccccc3cc2-c2ccc(F)cc2)cc1 | –
2 | – | NS(=O)(=O)c1ccc(-c2ccccc2-c2ccc(F)cc2)cc1 | ED50 (Rattus norvegicus [2]): > 50 mg/kg; ED50 (Rattus norvegicus [3]): 1.5 mg/kg
3 | – | CS(=O)(=O)c1ccc(-c2cc3c(cc2-c2ccc(F)cc2)OCO3)cc1 | inhibition in vivo at 2 mg/kg (Rattus norvegicus [4]): 0%
4 | – | NS(=O)(=O)c1ccc(-c2cc3c(cc2-c2ccc(F)cc2)OCO3)cc1 | inhibition in vivo at 2 mg/kg (Rattus norvegicus [4]): 26%
5 | – | NS(=O)(=O)c1ccc(-c2cc(F)c(F)cc2-c2ccc(F)c(Cl)c2)cc1 | ED50 (Rattus norvegicus [5]): 38.7 mg/kg; ED50 (Rattus norvegicus [3]): 0.05 mg/kg
6 | > 100 µM | CS(=O)(=O)c1ccc(-c2c(F)c(F)c(F)c(F)c2-c2ccc(F)cc2)cc1 | –
7 | > 100 µM | CS(=O)(=O)c1ccc(-c2cc(F)c(F)cc2-c2ccc3c(c2)OCCO3)cc1 | –
8 | > 100 µM | CS(=O)(=O)c1ccc(-c2cc(Cl)c(Cl)cc2-c2ccc(F)cc2)cc1 | –
9 | > 100 µM | CS(=O)(=O)c1ccc(-c2nccnc2-c2ccc(F)cc2)cc1 | –
10 | > 100 µM | COc1c(Cl)cc(-c2cc(F)c(F)cc2-c2ccc(S(C)(=O)=O)cc2)cc1Cl | –
